Patent US20240148821A1, “PHARMACEUTICAL USE OF CYCLIC PEPTIDE COMPOUND” (CHUGAI SEIYAKU KABUSHIKI KAISHA, priority 2021, published 2024)
pIC50: −log10 of the molar value. Numbered stars: 1 amine (or outer) side, 2 acyl side, 3 side chain; on linkers, the order of the positions; unused ones are H or OH. Bridge positions count the residues as written; N and C are the ends. Square brackets hold non-standard residues; d marks the D form. Peptide text beside a SMILES is read from it. * marks the point of attachment. hPhe(3,5-F2-4-CF3) = N[C@@H](CCc1cc(F)c(C(F)(F)F)c(F)c1)C(=O)O; hPhe(3-Cl-4-CF3) = N[C@@H](CCc1ccc(C(F)(F)F)c(Cl)c1)C(=O)O; hPhe(3-F,4-CF3) = N[C@@H](CCc1ccc(C(F)(F)F)c(F)c1)C(=O)O; NMePhe(4-CF3) = CN[C@@H](Cc1ccc(C(F)(F)F)cc1)C(=O)O; Phe(4-CHF2) = N[C@@H](Cc1ccc(C(F)F)cc1)C(=O)O; NEtPhe(4-Me) = CCN[C@@H](Cc1ccc(C)cc1)C(=O)O; NMePhe(4-Cl) = CN[C@@H](Cc1ccc(Cl)cc1)C(=O)O; NMePhe(4-Me) = CN[C@@H](Cc1ccc(C)cc1)C(=O)O; NMedβ3hAla = C[C@H](CC(=O)[*:2])N(C)[*:1]; NMeAla(cPent) = CN[C@@H](CC1CCCC1)C(=O)O; NMeGly(cPent) = CN[C@H](C(=O)O)C1CCCC1; X28 = O=C(CN(C1CC2(COC2)C1)[*:1])[*:2]; NMeCha = CN[C@@H](CC1CCCCC1)C(=O)O; Hyp = O=C(O)[C@@H]1C[C@@H](O)CN1; NMeAhp(2) = CCCCC[C@H](NC)C(=O)O; NMeChg = CN[C@H](C(=O)O)C1CCCCC1; NMeI = CC[C@H](C)[C@H](NC)C(=O)O; NMeD = CN[C@@H](CC(=O)O)C(=O)O; NMeL = CN[C@@H](CC(C)C)C(=O)O; Chg = N[C@H](C(=O)O)C1CCCCC1; NMePra = C#CC[C@H](NC)C(=O)O; dNMeAbu = CC[C@@H](NC)C(=O)O; NMeV = CN[C@H](C(=O)O)C(C)C; Azetidin(1-yl) = C1CN(*)C1; NMeS = CN[C@@H](CO)C(=O)O; dNMeS = CN[C@H](CO)C(=O)O; Ac6c = NC1(C(=O)O)CCCCC1; NMeA = CN[C@@H](C)C(=O)O; NMeAib = CNC(C)(C)C(=O)O; Piperidide = C1CCN(*)CC1; Pyrrolidide = C1CCN(*)C1; Ac5c = NC1(C(=O)O)CCCC1; Aze = O=C(O)[C@@H]1CCN1; Isopentyl = CC(C)CC*; NEtG = CCNCC(=O)O; Sar = CNCC(=O)O; Propyl = CCC*

Columns and labels:
[1] = target: protein-protein interaction between Kras and SOS1 (biotin-tagged human Kras loaded with GDP, His-tagged human SOS1) (Homo sapiens (Human), UniProt P01116, G12D); test: Protein-protein interaction inhibition between Kras and SOS1 (KrasG12D-SOS PPI) using AlphaScreen; assay type: biochemical; details: AlphaScreen; biotin-tagged human Kras loaded with GDP, His-tagged human SOS1; read-out: KRAS G12D-SOS PPI IC50;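 further: kras produced in E. coli, Ni-coupled donor beads and streptavidin acceptor beads, excitation 680 nm with emission detected at 520–620 nm via singlet oxygen transfer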
[2] = tested on: Human pancreatic cancer cell line AsPC-1 (G12D mutation Kras); test: AsPC-1 cell growth inhibition (AsPC-1 CGI); assay type: cell-based; details: read-out: AsPC-1 cell growth inhibition, 50% growth inhibitory concentration (IC50 value); 96 hours, CellTiter-Glo, values classified in ranges

Row | Compound | pIC50 [1] | pIC50 [2]
1 | CC(C)C[C@@H]1NC(=O)C(C)(C)N(C)C(=O)[C@H](CC(C)C)NC(=O)[C@H](CCc2ccc(C(F)(F)F)c(F)c2)NC(=O)CN(C)C(=O)[C@H](Cc2ccc(Cl)cc2)N(C)C(=O)CN(C)C(=O)CN(C)C(=O)[C@H](C2CCCCC2)NC(=O)[C@H](CC(C)C)N(C)C(=O)C[C@@H](C)N(C)C1=O [Compound 1133] (cyclo([Chg][Sar][Sar][NMePhe(4-Cl)][Sar][hPhe(3-F,4-CF3)]L[NMeAib]L[NMedβ3hAla][NMeL])) | 7.25 | < 6.30
2 | CC[C@H](C)[C@@H]1NC(=O)[C@H](CC(C)C)N(C)C(=O)C[C@@H](C(=O)N2CCCCC2)N(C)C(=O)[C@H](C2CCCCC2)N(C)C(=O)C2(CCCC2)NC(=O)CN(C2CC3(COC3)C2)C(=O)[C@H](CCc2ccc(C(F)(F)F)c(Cl)c2)NC(=O)CN(C)C(=O)[C@H](CC2CCCCC2)N(C)C(=O)CN(C)C(=O)CN(C)C1=O [Compound 2030] ([NMeL]I[Sar][Sar][NMeCha][Sar][hPhe(3-Cl-4-CF3)][X28][Ac5c][NMeChg][NMeD]-Piperidide; lactam N-11) | 8.64 | < 6.30
3 | C#CC[C@H]1C(=O)N(C)CC(=O)N[C@@H](CCc2ccc(C(F)(F)F)c(Cl)c2)C(=O)N2CCC[C@H]2C(=O)NC2(CCCC2)C(=O)N(C)[C@@H](C(C)C)C(=O)N(C)[C@H](C(=O)N2CCCCC2)CC(=O)N(C)[C@@H](CC(C)C)C(=O)N[C@@H]([C@@H](C)CC)C(=O)N(C)[C@@H](C)C(=O)N2CC[C@H]2C(=O)N1C [Compound 32] ([NMeL]I[NMeA][Aze][NMePra][Sar][hPhe(3-Cl-4-CF3)]P[Ac5c][NMeV][NMeD]-Piperidide; lactam N-11) | 7.70 | < 6.30
4 | CC[C@H](C)[C@@H]1NC(=O)[C@H](CC(C)C)N(C)C(=O)C[C@@H](C)N(C)C(=O)[C@H](CC(C)C)NC(=O)C(C)(C)N(C)C(=O)[C@H](Cc2ccc(C(F)F)cc2)NC(=O)[C@H](CCc2ccc(C(F)(F)F)c(F)c2)NC(=O)CN(C)C(=O)[C@H](CC2CCCCC2)N(C)C(=O)CN(C)C(=O)CN(C)C1=O [Compound 858] (cyclo(I[Sar][Sar][NMeCha][Sar][hPhe(3-F,4-CF3)][Phe(4-CHF2)][NMeAib]L[NMedβ3hAla][NMeL])) | 6.48 | < 6.30
5 | CC[C@H](C)[C@@H]1NC(=O)[C@H](CC(C)C)N(C)C(=O)C[C@@H](C(=O)N2CCCCC2)N(C)C(=O)[C@H](C(C)C)N(C)C(=O)C2(CCCCC2)NC(=O)[C@@H]2CCCN2C(=O)[C@H](CCc2ccc(C(F)(F)F)c(Cl)c2)NC(=O)CN(C)C(=O)[C@H](CC2CCCCC2)N(C)C(=O)[C@@H]2CCN2C(=O)[C@H](C)N(C)C1=O [Compound 1708] ([NMeL]I[NMeA][Aze][NMeCha][Sar][hPhe(3-Cl-4-CF3)]P[Ac6c][NMeV][NMeD]-Piperidide; lactam N-11) | 8.00 | < 6.30
6 | CC[C@H](C)[C@@H]1NC(=O)[C@H](CC2CCCC2)N(C)C(=O)C[C@@H](C(=O)N2CCC2)N(C)C(=O)[C@H](C2CCCC2)N(C)C(=O)C2(CCCC2)NC(=O)[C@@H]2CCCN2C(=O)[C@H](CCc2ccc(C(F)(F)F)c(Cl)c2)NC(=O)CN(C)C(=O)[C@H](CC2CCCCC2)N(C)C(=O)[C@@H]2CCN2C(=O)[C@H](C)N(C)C1=O [Compound 1199] ([NMeAla(cPent)]I[NMeA][Aze][NMeCha][Sar][hPhe(3-Cl-4-CF3)]P[Ac5c][NMeGly(cPent)][NMeD]-{Azetidin(1-yl)}; lactam N-11) | 9.15 | ≥ 7.70
7 | CC[C@H](C)[C@@H]1NC(=O)[C@H](CC(C)C)N(C)C(=O)C[C@@H](C(=O)N(C)C)N(C)C(=O)[C@H]([C@@H](C)CC)N(C)C(=O)[C@H](C)NC(=O)[C@@H]2CCCN2C(=O)[C@H](CCc2ccc(C(F)(F)F)c(Cl)c2)NC(=O)CN(C)C(=O)[C@H](Cc2ccc(C)cc2)N(C)C(=O)[C@@H]2CCN2C(=O)[C@H](C)N(C)C1=O [Compound 829] ([NMeL]I[NMeA][Aze][NMePhe(4-Me)][Sar][hPhe(3-Cl-4-CF3)]PA[NMeI][NMeD]-NMe2; lactam N-11) | 8.64 | < 6.30
8 | CCCCC[C@H]1C(=O)N[C@@H]([C@@H](C)CC)C(=O)N(C)[C@@H](C)C(=O)N2CC[C@H]2C(=O)N(C)[C@@H](Cc2ccc(C(F)(F)F)cc2)C(=O)N(C)CC(=O)N[C@@H](CCc2ccc(C(F)(F)F)c(Cl)c2)C(=O)N2CCC[C@H]2C(=O)NC2(CCCC2)C(=O)N(C)[C@@H]([C@@H](C)CC)C(=O)N(C)[C@H](C(=O)N2CCCC2)CC(=O)N1C [Compound 509] ([NMeAhp(2)]I[NMeA][Aze][NMePhe(4-CF3)][Sar][hPhe(3-Cl-4-CF3)]P[Ac5c][NMeI][NMeD]-Pyrrolidide; lactam N-11) | 8.89 | ≥ 7.70
9 | CCCOC[C@H]1C(=O)N(C)CC(=O)N[C@@H](CCc2ccc(C(F)(F)F)c(Cl)c2)C(=O)N2CCC[C@H]2C(=O)NC2(CCCC2)C(=O)N(C)[C@@H]([C@@H](C)CC)C(=O)N(C)[C@H](C(=O)N2CCCC2)CC(=O)N(C)[C@@H](CC(C)C)C(=O)N[C@@H]([C@@H](C)CC)C(=O)N(C)[C@@H](C)C(=O)N2CC[C@H]2C(=O)N1C [Compound 567] ([NMeL]I[NMeA][Aze][NMeS](Propyl)[Sar][hPhe(3-Cl-4-CF3)]P[Ac5c][NMeI][NMeD]-Pyrrolidide; lactam N-11) | 8.82 | ≥ 7.70
10 | CC[C@@H]1C(=O)NC2(CCCC2)C(=O)N(C)[C@@H](C2CCCCC2)C(=O)N(C)[C@H](C(=O)N2CCCCC2)CC(=O)N(C)[C@@H](CC(C)C)C(=O)N[C@@H]([C@@H](C)CC)C(=O)N(C)CC(=O)N(C)CC(=O)N(C)[C@@H](CC2CCCCC2)C(=O)N(C)CC(=O)N[C@@H](CCc2ccc(C(F)(F)F)c(Cl)c2)C(=O)N1C [Compound 1435] ([NMeL]I[Sar][Sar][NMeCha][Sar][hPhe(3-Cl-4-CF3)][dNMeAbu][Ac5c][NMeChg][NMeD]-Piperidide; lactam N-11) | 8.13 | < 6.30
11 | CC[C@H](C)[C@@H]1NC(=O)[C@H](CC(C)C)N(C)C(=O)C[C@@H](C(=O)N2CCCCC2)N(C)C(=O)[C@H](C2CCCCC2)N(C)C(=O)C2(CCCC2)NC(=O)[C@H](CC2CCCC2)N(C)C(=O)[C@H](CCc2ccc(C(F)(F)F)c(Cl)c2)NC(=O)CN(C)C(=O)[C@H](CC2CCCCC2)N(C)C(=O)CN(C)C(=O)CN(C)C1=O [Compound 643] ([NMeL]I[Sar][Sar][NMeCha][Sar][hPhe(3-Cl-4-CF3)][NMeAla(cPent)][Ac5c][NMeChg][NMeD]-Piperidide; lactam N-11) | 7.57 | < 6.30
12 | CC[C@H](C)[C@@H]1NC(=O)[C@H](CC(C)C)N(C)C(=O)C[C@@H](C(=O)N(C)C)N(C)C(=O)[C@H]([C@@H](C)CC)N(C)C(=O)[C@H](C(C)C)NC(=O)[C@@H]2CCCN2C(=O)[C@H](CCc2ccc(C(F)(F)F)c(Cl)c2)NC(=O)CN(C)C(=O)[C@H](Cc2ccc(C)cc2)N(C)C(=O)[C@@H]2CCN2C(=O)[C@H](C)N(C)C1=O [Compound 784] ([NMeL]I[NMeA][Aze][NMePhe(4-Me)][Sar][hPhe(3-Cl-4-CF3)]PV[NMeI][NMeD]-NMe2; lactam N-11) | 8.40 | < 6.30
13 | CCO[C@@H]1C[C@H]2C(=O)NC3(CCCC3)C(=O)N(C)[C@@H](C3CCCC3)C(=O)N(C)[C@H](C)CC(=O)N(C)[C@@H](CC(C)C)C(=O)N[C@@H]([C@@H](C)CC)C(=O)N(C)[C@@H](C)C(=O)N3CC[C@H]3C(=O)N(C)[C@@H](Cc3ccc(C(F)(F)F)cc3)C(=O)N(C)CC(=O)N[C@@H](CCc3cc(F)c(C(F)(F)F)c(F)c3)C(=O)N2C1 [Compound 344] (cyclo([Ac5c][NMeGly(cPent)][NMedβ3hAla][NMeL]I[NMeA][Aze][NMePhe(4-CF3)][Sar][hPhe(3,5-F2-4-CF3)][Hyp](Et))) | 9.08 | ≥ 7.70
14 | CC[C@H](C)[C@@H]1NC(=O)[C@H](CC(C)C)N(C)C(=O)C[C@@H](C(=O)N2CCCCC2)N(C)C(=O)[C@H](C2CCCCC2)N(C)C(=O)C2(CCCC2)NC(=O)[C@@H](COCCC(C)C)N(C)C(=O)[C@H](CCc2ccc(C(F)(F)F)c(Cl)c2)NC(=O)CN(C)C(=O)[C@H](CC2CCCCC2)N(C)C(=O)CN(C)C(=O)CN(C)C1=O [Compound 1436] ([NMeL]I[Sar][Sar][NMeCha][Sar][hPhe(3-Cl-4-CF3)][dNMeS](Isopentyl)[Ac5c][NMeChg][NMeD]-Piperidide; lactam N-11) | 7.41 | < 6.30
15 | CC[C@H](C)[C@@H]1NC(=O)[C@H](CC(C)C)N(C)C(=O)C[C@@H](C(=O)N(C)C)N(C)C(=O)[C@H]([C@@H](C)CC)N(C)C(=O)C2(CCCC2)NC(=O)[C@@H]2CCCN2C(=O)[C@H](CCc2ccc(C(F)(F)F)c(Cl)c2)NC(=O)CN(CC)C(=O)[C@H](Cc2ccc(C)cc2)N(C)C(=O)[C@@H]2CCN2C(=O)[C@H](C)N(C)C1=O [Compound 1120] ([NMeL]I[NMeA][Aze][NMePhe(4-Me)][NEtG][hPhe(3-Cl-4-CF3)]P[Ac5c][NMeI][NMeD]-NMe2; lactam N-11) | 8.60 | ≥ 7.70
16 | CC[C@H](C)[C@@H]1NC(=O)[C@H](CC(C)C)N(C)C(=O)C[C@@H](C(=O)N2CCCC2)N(C)C(=O)[C@H]([C@@H](C)CC)N(C)C(=O)C2(CCCC2)NC(=O)[C@@H]2CCCN2C(=O)[C@H](CCc2cc(F)c(C(F)(F)F)c(F)c2)NC(=O)CN(C)C(=O)[C@H](Cc2ccc(C)cc2)N(CC)C(=O)[C@@H]2CCN2C(=O)[C@H](C)N(C)C1=O [Compound 1351] ([NMeL]I[NMeA][Aze][NEtPhe(4-Me)][Sar][hPhe(3,5-F2-4-CF3)]P[Ac5c][NMeI][NMeD]-Pyrrolidide; lactam N-11) | 9.09 | ≥ 7.70
